Each structure is given as a SMILES string.

What all share (format): cell-based
Assay [1] relates to PANC-1 human pancreatic cell line. Kind of assay: In vitro proliferation of PANC-1 cells (MTT). To be noted: 72 hours exposure, read-out: PANC-1 (IC50 μg/ml). How it is done: (§1) Swiftiapregnene was analyzed as to its effect on the proliferation of PANC-1 human pancreatic and P388 murine leukemia cell lines. P388 cells were obtained from Dr. R. Camalier, National Cancer Institute, Bethesda, Md., and PANC-1 cells were obtained from American Type Culture Collection, Rockville, Md. All cell lines were maintained in tissue culture medium (TCM; Roswell Park Memorial Institute RPMI 1640 supplemented with 100 U/mL penicillin, […] streptomycin, […] 1-glutamine, 18 mM HEPES, 0.05 mg/mL gentamicin (Life Technologies, Gaithersburg, Md.) and 10% fetal bovine serum) and cultured in plastic tissue culture flasks at 37° C. in humidified air containing 5% CO2. Stock cultures of P388 cells were subcultured 1:20 in fresh TCM every 2 to 3 days. Stock cultures of A549 cells were subcultured 1:10 every 3 to 4 days. To assess the antiproliferative effects of agents against the cells, […] cultures (96-well tissue culture plates, Nunc, Denmark) were established at 1×10^5 cells/mL in TCM or TCM containing the test agent at 0.03-5.0 μg/mL. After 48-h exposures, P388 cells were enumerated using 3-[4,5-dimethylthiazol-2-yl]-2,5-diphenyltetrazolium bromide (MTT) as described in the literature (M. C. Alley, et al., Cancer Res. 48:589, 1988). […] The results were expressed as percent inhibition compared to the negative (no drug) control. […]

The subject of assay [2] is P388 murine leukemia cell line. Kind of assay: In vitro proliferation of P388 cells (MTT). Particulars: Mus musculus, 48-h exposure, read-out: P388 (IC50 μg/ml). How it is done: as §1
Assay [3] deals with A549 human lung cells. Kind of assay: Cell cycle progression by flow cytometry (propidium iodide). To be noted: 100 μg/ml, 24 hr. Here is the method: Cell cycle studies were initiated in order to pinpoint a specific phase within the cell cycle in which discodermolide analogs were exerting their antiproliferative effect. A549 human lung cells were used as cell cycle targets to compare the effects of discodermolide and discodermolide analogs on perturbation of the cell cycle. Cell cycle analyses were performed as follows: A549 cells were incubated at 37° C. in 5% CO2 in air in the presence or absence of varying concentrations of discodermolide or discodermolide analogs for 24 hr. Cells were harvested, fixed in ethanol, washed, and stained with 0.2 mg/mL of propidium iodide (P.I.) together with 0.1 mg/mL of RNAse A. Stained preparations were analyzed on a Coulter EPICS ELITE flow cytometer with 488 nm excitation. Fluorescence measurements and resulting DNA histograms were collected from at least 10,000 P.I. stained cells at an emission wavelength of 690 nm. Raw histogram data was further analyzed using a cell cycle analysis program (Multicycle, Phoenix Flow Systems).

For the compound `C=CC1CCC2C3CC=C4CC(OC5OC(C)C(O)C(O)C5OC(C)=O)CCC4(C)C3CCC12C` (stereo not drawn) [Swiftiapregnene (I), Swiftiapregnene], the figures for the IC50 in assay [1] and in assay [2] were 7.4 µg/mL and 21 µg/mL, respectively. Moreover, the “effect on cell cycle (sub-G1 population)” value in assay [3] is “increase in the sub-G1 population”.

The record behind these values is patent US6784160B1, “Biologically active pregnene compounds” (Harbor Branch Oceanographic Institution, Inc., priority 2002, dated 2004).
